Each compound was assayed against PKM2 (Homo sapiens, UniProt P14618) (assay: PKM2 Assay (activation, LDH-coupled, absorbance at 340 nm)). Conditions: Table 4.
Type: biochemical
Experimental: • PKM2 stock enzyme solution was diluted in Reaction Buffer • 2 μL of compound was added into each well first, and then 180 μL of the Reaction Mix was added. • Reaction mixture with compound (without ADP) was incubated for 30 minutes at 4° C. • Plates were re-equilibrated to room temperature prior to adding 20 μL ADP to initiate the reaction. • Reaction progress was measured as changes in absorbance at 340 nm wavelength at room temperature (25° C.) Reaction Mix: PKM2 (50 ng/well), ADP (0.7 mM), PEP (0.15 mM), NADH (180 μM), LDH (2 units) in Reaction Buffer Reaction Buffer: 100 mM KCl, 50 mM Tris pH 7.5, 5 mM MgCl2, 1 mM DTT, 0.03% BSA.
Representative compounds of the invention were tested for their ability to activate PKM2 using the above assay. For simplicity, the activation activity of these compounds is represented as an AC50 in Tables 4 and 5 and throughout the application. […] “B” refers to an activator of PKM2 with an EC50 between 100 nM and 500 nM. “C” refers to an activator of PKM2 with an EC50 between 500 nM and 1000 nM. “D” refers to an activator of PKM2 with an EC50 between 1 μM and 20 μM. “E” refers a compound whose activation of PKM2 was not measurable. “N/C” refers to AC50 data not available.

Sequence of PKM2 (P14618 whole entry): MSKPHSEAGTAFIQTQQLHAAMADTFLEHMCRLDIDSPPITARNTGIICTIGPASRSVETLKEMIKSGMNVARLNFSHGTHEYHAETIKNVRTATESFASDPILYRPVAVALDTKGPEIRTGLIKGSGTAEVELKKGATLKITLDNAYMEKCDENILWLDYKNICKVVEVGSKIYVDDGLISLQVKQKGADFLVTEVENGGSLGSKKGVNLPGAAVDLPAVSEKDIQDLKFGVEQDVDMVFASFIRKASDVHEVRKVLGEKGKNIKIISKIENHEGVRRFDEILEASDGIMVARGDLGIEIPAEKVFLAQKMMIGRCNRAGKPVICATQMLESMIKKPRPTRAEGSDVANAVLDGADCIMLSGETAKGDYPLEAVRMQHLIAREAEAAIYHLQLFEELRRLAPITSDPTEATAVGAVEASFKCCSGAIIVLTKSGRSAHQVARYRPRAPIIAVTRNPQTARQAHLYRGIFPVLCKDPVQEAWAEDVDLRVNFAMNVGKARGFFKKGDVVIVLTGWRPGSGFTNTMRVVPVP

Structure (SMILES)	AC50 [nM]
CC(C)COC(=O)N1[C@H](C)CN(C(=O)c2ccc(NS(=O)(=O)c3cccc4cccnc34)cc2)C[C@@H]1C [Compound 105, (2S,6R)-isobutyl-2,6-dimethyl-4-(4-(quinoline-8-sulfonamido)benzoyl)piperazine-1-carboxylate]	100 to 500
C[C@H]1CN(CC2CC2)CCN1C(=O)c1ccc(NS(=O)(=O)c2cccc3cccnc23)cc1Cl [Compound 178]	100 to 500
O=C(c1ccc(NS(=O)(=O)c2cccc3cccnc23)cc1)N1C2CCC1CN(Cc1cc(F)cc(F)c1)C2 [Compound 227, N-(4-(3-(3,5-difluorobenzyl)-3,8-diazabicyclo[3.2.1]octane-8-carbonyl)phenyl)quinoline-8-sulfonamide]	100 to 500
C[C@H]1CN(C[C@H]2CCCO2)CCN1C(=O)c1ccc(NS(=O)(=O)c2cccc3cccnc23)cc1 (stereo in doubt) [Compound 211, N-(4-((2S)-2R-methyl-4-((tetrahydrofuran-2-yl)methyl)piperazine-1-carbonyl)phenyl)quinoline-8-sulfonamide]	< 100
C[C@@H]1CN(C(=O)OCCC2CCCC2)CCN1C(=O)c1ccc(NS(=O)(=O)c2cccc3cccnc23)cc1 [Compound 122, (R)-2-Cyclopentylethyl-3-methyl-4-(4-(quinoline-8-sulfonamido)benzoyl)piperazine-1-carboxylate]	< 100
C[C@H]1CN(CC2CC2)CCN1C(=O)c1ccc(NS(=O)(=O)c2cccc3cccnc23)cc1 [Compound 144, (S)—N-(4-(4-(cyclopropylmethyl)-2-methylpiperazine-1-carbonyl)phenyl)quinoline-8-sulfonamide]	< 100
CC(c1ccc(F)cc1)N1CCN(C(=O)c2ccc(NS(=O)(=O)c3cccc4cccnc34)cc2)[C@@H](C)C1 (stereo partly drawn) [Compound 171]	100 to 500
C[C@@H]1CN(C(=O)O[C@@H]2CCOC2)CCN1C(=O)c1ccc(NS(=O)(=O)c2cccc3cccnc23)cc1 [Compound 126, (R)—((R)-tetrahydrofuran-3-yl)-3-methyl-4-(4-(quinoline-8-sulfonamido)benzoyl)piperazine-1-carboxylate]	100 to 500
CC(c1ccc(F)c(F)c1F)N1CCN(C(=O)c2ccc(NS(=O)(=O)c3cccc4cccnc34)cc2)[C@@H](C)C1 (stereo partly drawn) [Compound 173]	100 to 500
C[C@@H]1CN(C[C@H]2CCCO2)CCN1C(=O)c1ccc(NS(=O)(=O)c2cccc3cccnc23)cc1 [Compound 212, N-(4-((R)-2-methyl-4-(((R)-tetrahydrofuran-2-yl)methyl)piperazine-1-carbonyl)phenyl)quinoline-8-sulfonamide]	< 100
C[C@H]1CN(Cc2cc(F)c(F)c(F)c2)CCN1C(=O)c1ccc(NS(=O)(=O)c2cccc3cccnc23)cc1 [Compound 155, (S)—N-(4-(2-methyl-4-(3,4,5-trifluorobenzyl)piperazine-1-carbonyl)phenyl)quinoline-8-sulfonamide]	< 100
CC(c1c(F)cccc1F)N1CCN(C(=O)c2ccc(NS(=O)(=O)c3cccc4cccnc34)cc2)[C@H](C)C1 (stereo partly drawn) [Compound 159, N-(4-((2R)-4-(1-(2,6-difluorophenyl)ethyl)-2-methylpiperazine-1-carbonyl)phenyl)quinoline-8-sulfonamide]	100 to 500
CC1CN(Cc2ccc(Cl)c(F)c2)CC(C)N1C(=O)c1ccc(NS(=O)(=O)c2cccc3cccnc23)cc1 (stereo not drawn) [Compound 197, N-(4-(4-(4-chloro-3-fluorobenzyl)-2,6-dimethylpiperazine-1-carbonyl)phenyl)quinoline-8-sulfonamide]	100 to 500
C[C@@H]1CN(CC2CC2)CCN1C(=O)c1ccc(NS(=O)(=O)c2cccc3cccnc23)cc1 [Compound 113, (R)—N-(4-(4-(cyclopropylmethyl)-2-methylpiperazine-1-carbonyl)phenyl)quinoline-8-sulfonamide]	< 100
C[C@H]1CN(C(=O)c2ccc(NS(=O)(=O)c3cccc4cccnc34)cc2)CCN1C(=O)c1ccccn1 [Compound 100]	100 to 500
C[C@@H]1CN(Cc2cc(F)cc(F)c2)CCN1C(=O)c1ccc(NS(=O)(=O)c2cccc3cccnc23)cc1 [Compound 119, (R)—N-(4-(4-(3,5-difluorobenzyl)-2-methylpiperazine-1-carbonyl)phenyl)quinoline-8-sulfonamide]	< 100
C[C@@H]1CN(CC2CCCC2)CCN1C(=O)c1ccc(NS(=O)(=O)c2cccc3cccnc23)cc1 [Compound 114, (R)—N-(4-(4-(cyclopentylmethyl)-2-methylpiperazine-1-carbonyl)phenyl)quinoline-8-sulfonamide]	< 100
O=C1CN(C(=O)c2ccc(NS(=O)(=O)c3cccc4cccnc34)cc2)CCN1Cc1cc(F)cc(F)c1 [Compound 216, N-(4-(4-(3,5-difluorobenzyl)-3-oxopiperazine-1-carbonyl)phenyl)quinoline-8-sulfonamide]	< 100
CC(c1ccccc1F)N1CCN(C(=O)c2ccc(NS(=O)(=O)c3cccc4cccnc34)cc2)[C@H](C)C1 (stereo partly drawn) [Compound 183]	< 100
CC[C@H]1CN(Cc2cc(F)cc(F)c2)CCN1C(=O)c1ccc(NS(=O)(=O)c2cccc3cccnc23)cc1 [Compound 136, (S)—N-(4-(4-(3,5-difluorobenzyl)-2-ethylpiperazine-1-carbonyl)phenyl)quinoline-8-sulfonamide]	100 to 500
C[C@@H]1CN(CC2CCCCO2)CCN1C(=O)c1ccc(NS(=O)(=O)c2cccc3cccnc23)cc1 (stereo partly drawn) [Compound 163, N-(4-((2R)-2-methyl-4-((tetrahydro-2H-pyran-2-yl)methyl)piperazine-1-carbonyl)phenyl)quinoline-8-sulfonamide]	< 100

Same assay, conditions: Table 5

Structure (SMILES)	AC50 [nM]
O=C(c1ccc(NS(=O)(=O)c2cccc3cccnc23)cc1)N1CCN(C2(c3ccccc3)CCC2)CC1 [Compound 408, N-(4-(4-(1-phenylcyclobutyl)piperazine-1-carbonyl)phenyl)quinoline-8-sulfonamide]	< 100
O=C(c1ccc(NS(=O)(=O)c2cccc3cccnc23)c(OC(F)(F)F)c1)N1CCN(Cc2cn[nH]c2)CC1 [Compound 383]	100 to 500
O=C(c1ccc(NS(=O)(=O)c2cccc3cccnc23)cc1Cl)N1CCN(Cc2ccc(Cl)c(F)c2)CC1 [Compound 432, N-(3-chloro-4-(4-(4-chloro-3-fluorobenzyl)piperazine-1-carbonyl)phenyl)quinoline-8-sulfonamide]	100 to 500
CC(C)(c1cccc(F)c1)N1CCN(C(=O)c2ccc(NS(=O)(=O)c3cccc4cccnc34)cc2)CC1 [Compound 405]	< 100
CC(C)(c1ccccc1)N1CCN(C(=O)c2ccc(NS(=O)(=O)c3cccc4cccnc34)cc2)CC1 [Compound 364]	< 100
O=C(c1ccc(NS(=O)(=O)c2cccc3cccnc23)c(OC(F)(F)F)c1)N1CCN(Cc2cccc(F)c2F)CC1 [Compound 375, N-(4-(4-(2,3-difluorobenzyl)piperazine-1-carbonyl)-2-(trifluoromethoxy)phenyl)quinoline-8-sulfonamide]	100 to 500
O=C(c1ccc(NS(=O)(=O)c2cccc3cccnc23)c(OC(F)(F)F)c1)N1CCN(Cc2ccc(F)c(Cl)c2)CC1 [Compound 376, N-(4-(4-(3-chloro-4-fluorobenzyl)piperazine-1-carbonyl)-2-(trifluoromethoxy)phenyl)quinoline-8-sulfonamide]	100 to 500
COc1cc(C(=O)N2CCN(C(=O)Oc3ccccn3)CC2)ccc1NS(=O)(=O)c1cccc2cccnc12 [Compound 315, Pyridin-2-yl 4-(3-methoxy-4-(quinoline-8-sulfonamido)benzoyl)piperazine-1-carboxylate]	100 to 500
O=C(c1ccc(NS(=O)(=O)c2cccc3cccnc23)cc1Cl)N1CCN(CC2CCCCO2)CC1 (stereo not drawn) [Compound 439, N-(3-chloro-4-(4-((tetrahydro-2H-pyran-2-yl)methyl)piperazine-1-carbonyl)phenyl)quinoline-8-sulfonamide]	100 to 500
COc1cc(C(=O)N2CCN(C3(c4ccccc4)CC3)CC2)ccc1NS(=O)(=O)c1cccc2cccnc12 [Compound 352, N-(2-methoxy-4-(4-(1-phenylcyclopropyl)piperazine-1-carbonyl)phenyl)quinoline-8-sulfonamide]	100 to 500
O=C(c1ccncc1)N1CCN(C(=O)c2ccc(NS(=O)(=O)c3cccc4cccnc34)c(OC(F)(F)F)c2)CC1 [Compound 363]	100 to 500
O=C(c1ccc(NS(=O)(=O)c2cccc3cccnc23)cc1F)N1CCN(Cc2ccc(F)cc2)CC1 [Compound 420, N-(3-fluoro-4-(4-(4-fluorobenzyl)piperazine-1-carbonyl)phenyl)quinoline-8-sulfonamide]	< 100
O=C(c1ccc(NS(=O)(=O)c2cccc3cccnc23)cc1)N1CCN(Cc2cc[nH]n2)CC1 [Compound 384]	< 100
O=C(c1ccc(NS(=O)(=O)c2cccc3cccnc23)cc1Cl)N1CCN(CC2CCOCC2)CC1 [Compound 440, N-(3-chloro-4-(4-((tetrahydro-2H-pyran-4-yl)methyl)piperazine-1-carbonyl)phenyl)quinoline-8-sulfonamide]	100 to 500
CC(c1cc(F)cc(F)c1)N1CCN(C(=O)c2ccc(NS(=O)(=O)c3cccc4cccnc34)cc2)CC1 (stereo not drawn) [Compound 331, N-(4-(4-(1-(3,5-difluorophenyl)ethyl)piperazine-1-carbonyl)phenyl)quinoline-8-sulfonamide]	< 100

Source: patent publication US8889667B2 (Agios Pharmaceuticals, Inc, priority 2010, dated 2014)
